Legend:
[1] = target: xanthine oxidase (Bos taurus, UniProt P80457); test: Fluorescence-quenching binding to xanthine oxidase; details: for Affinity n (number of binding sites per enzyme molecule): double-logarithm formula; for Affinity n (number of binding sites per enzyme molecule) / Affinity K sv (dynamic quenching constant): 25 °C; for Affinity K sv (dynamic quenching constant): xanthine oxidase 1.0 μmol L^−1 in PBS, λex 280 nm, emission 335 nm; for Quenching of xanthine oxidase fluorescence (in words): no binding constant value
[2] = partition coefficient; ref https://pubchem.ncbi.nlm.nih.gov/compound/; cited from earlier work

xanthine oxidase, sequence (P80457 2-1332): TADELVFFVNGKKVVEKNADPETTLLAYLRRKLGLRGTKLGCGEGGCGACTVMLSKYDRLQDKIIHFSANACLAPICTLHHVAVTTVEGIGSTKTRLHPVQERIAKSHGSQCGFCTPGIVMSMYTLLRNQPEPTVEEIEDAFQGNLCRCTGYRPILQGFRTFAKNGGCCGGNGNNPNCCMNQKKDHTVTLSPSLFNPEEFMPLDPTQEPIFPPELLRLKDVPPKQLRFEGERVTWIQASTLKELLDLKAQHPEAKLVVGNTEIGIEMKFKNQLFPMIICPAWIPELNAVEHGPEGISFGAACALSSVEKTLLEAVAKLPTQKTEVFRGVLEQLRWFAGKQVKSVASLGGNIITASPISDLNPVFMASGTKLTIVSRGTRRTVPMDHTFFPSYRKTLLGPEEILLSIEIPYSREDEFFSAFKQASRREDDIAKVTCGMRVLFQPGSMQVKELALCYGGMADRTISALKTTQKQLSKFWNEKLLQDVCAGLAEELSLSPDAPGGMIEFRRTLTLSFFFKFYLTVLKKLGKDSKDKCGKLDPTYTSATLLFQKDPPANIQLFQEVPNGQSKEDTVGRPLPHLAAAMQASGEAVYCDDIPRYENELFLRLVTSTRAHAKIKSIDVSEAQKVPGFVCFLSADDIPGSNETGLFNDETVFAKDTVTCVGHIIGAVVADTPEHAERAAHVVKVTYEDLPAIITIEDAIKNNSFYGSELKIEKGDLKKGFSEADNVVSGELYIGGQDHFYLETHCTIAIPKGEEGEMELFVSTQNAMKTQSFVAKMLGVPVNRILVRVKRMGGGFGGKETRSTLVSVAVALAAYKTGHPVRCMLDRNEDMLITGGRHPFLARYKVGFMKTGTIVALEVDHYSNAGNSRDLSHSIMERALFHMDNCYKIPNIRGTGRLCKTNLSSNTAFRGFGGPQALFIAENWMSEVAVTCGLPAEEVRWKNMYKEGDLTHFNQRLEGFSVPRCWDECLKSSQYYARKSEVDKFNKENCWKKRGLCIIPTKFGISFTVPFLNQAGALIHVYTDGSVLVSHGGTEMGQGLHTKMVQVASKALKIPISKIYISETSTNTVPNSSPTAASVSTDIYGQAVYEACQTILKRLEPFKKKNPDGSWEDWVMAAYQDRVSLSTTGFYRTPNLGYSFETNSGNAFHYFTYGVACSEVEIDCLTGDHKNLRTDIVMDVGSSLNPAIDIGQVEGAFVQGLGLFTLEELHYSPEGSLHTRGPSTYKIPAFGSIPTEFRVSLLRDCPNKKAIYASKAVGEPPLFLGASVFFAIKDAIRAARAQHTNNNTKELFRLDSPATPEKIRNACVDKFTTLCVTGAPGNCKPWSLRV

SMILES	Affinity n (number of binding sites per enzyme molecule) [1]	Affinity K sv (dynamic quenching constant) [1]	X log P3 [2]	Quenching of xanthine oxidase fluorescence (in words) [1]	Fold increase of affinity for xanthine oxidase after glycosylation ([1]; aglycone named, 3,7-glycosylation of kaempferol, 3-glycosylation of quercetin, 7-glycosylation of naringenin)	Fold higher affinity for xanthine oxidase than the C2=C3 unsaturated counterpart ([1]; dihydromyricetin versus myricetin, naringenin versus apigenin)
O=c1cc(-c2ccc(O)cc2)oc2cc(O)cc(O)c12 [Apigenin]	0.4524	0.0285 10^6	1.7			
O=c1cc(-c2ccccc2)oc2cc(O)c(O)c(O)c12 [Baicalein]	1.5312	0.1981 10^6	1.7			
O=C(O)[C@H]1O[C@@H](Oc2cc3oc(-c4ccccc4)cc(=O)c3c(O)c2O)[C@H](O)[C@@H](O)[C@@H]1O [Baicalin]	1.8782	0.3668 10^6	1.1			
O=c1cc(-c2ccccc2)oc2cc(O)cc(O)c12 [Chrysin]	0.6025	0.0195 10^6	2.1			
O=c1c(-c2ccc(O)cc2)coc2cc(O)ccc12 [Daidzein]	1.2554	0.0230 10^6				
O=C1c2c(O)cc(O)cc2O[C@H](c2cc(O)c(O)c(O)c2)[C@H]1O [Dihydromyricetin]	1.2262	0.0470 10^6	1.1			
Oc1cc(O)c2c(c1)O[C@H](c1ccc(O)c(O)c1)[C@H](O)C2 [EC (2,3-cis), epicatechin]				not able to quench the fluorescence		
O=C(O[C@@H]1Cc2c(O)cc(O)cc2O[C@@H]1c1cc(O)c(O)c(O)c1)c1cc(O)c(O)c(O)c1 [EGCG (2,3-cis), (−)-epigallocatechin gallate]	1.2461	0.0226 10^6				
O=c1c(O)c(-c2ccc(O)c(O)c2)oc2cc(O)ccc12 [Fisetin]	1.3663	0.0729 10^6	2.0			
O=c1cc(-c2ccccc2)oc2ccccc12 [Flavone]	1.3695	0.0552 10^6	3.6			
COc1ccc(-c2coc3cc(O)ccc3c2=O)cc1 [Formononetin]	0.6866	0.0147 10^6	2.8			
Oc1cc(O)c2c(c1)O[C@@H](c1cc(O)c(O)c(O)c1)[C@H](O)C2 [GC (2,3-trans), (−)-gallocatechin]				not able to quench the fluorescence		
O=c1c(O)c(-c2ccccc2)oc2cc(O)cc(O)c12 [Galangin]	0.9038	0.0276 10^6	2.3			
O=c1c(-c2ccc(O)cc2)coc2cc(O)cc(O)c12 [Genistein]	1.3911	0.0537 10^6	2.7			
COc1c(O)cc2oc(-c3ccc(O)cc3)cc(=O)c2c1O [Hispidulin]	1.2571	0.0989 10^6	1.7			
COc1ccc(-c2oc3cc(O)cc(O)c3c(=O)c2O)cc1 [Kaempferide]			2.2			
C[C@@H]1O[C@@H](Oc2cc(O)c3c(=O)c(O[C@@H]4O[C@@H](C)[C@H](O)[C@@H](O)[C@H]4O)c(-c4ccc(O)cc4)oc3c2)[C@H](O)[C@H](O)[C@H]1O [Kaempferitrin]			−0.1			
O=c1c(O)c(-c2ccc(O)cc2)oc2cc(O)cc(O)c12 [Kaempferol]	1.0535	0.0225 10^6	1.9			
O=c1cc(-c2ccc(O)c(O)c2)oc2cc(O)cc(O)c12 [Luteolin]	1.3087	0.0926 10^6	1.4			
O=c1c(O)c(-c2cc(O)c(O)c(O)c2)oc2cc(O)cc(O)c12 [Myricetin]	1.0764	0.0294 10^6	1.2			
O=C1C[C@@H](c2ccc(O)cc2)Oc2cc(O)cc(O)c21 [Naringenin]	1.2510	0.0568 10^6	2.4		73.3 times	4676 times
C[C@@H]1O[C@@H](O[C@H]2[C@H](Oc3cc(O)c4c(c3)O[C@H](c3ccc(O)cc3)CC4=O)O[C@H](CO)[C@@H](O)[C@@H]2O)[C@H](O)[C@H](O)[C@H]1O [Naringin]	1.6838	0.0846 10^6	−0.5			
COc1ccc(-c2cc(=O)c3c(OC)c(OC)c(OC)c(OC)c3o2)cc1OC [Nobiletin]	2.8371	0.9637 10^6	3.0			
O=c1c(-c2ccc(O)cc2)coc2c([C@@H]3O[C@H](CO)[C@@H](O)[C@H](O)[C@H]3O)c(O)ccc12 [Puerarin]	1.1801	0.0290 10^6	0.0			
O=c1c(O)c(-c2ccc(O)c(O)c2)oc2cc(O)cc(O)c12 [Quercetin]	1.0614	0.0477 10^6	1.5			
C[C@@H]1O[C@@H](OC[C@H]2O[C@@H](Oc3c(-c4ccc(O)c(O)c4)oc4cc(O)cc(O)c4c3=O)[C@H](O)[C@@H](O)[C@@H]2O)[C@H](O)[C@H](O)[C@H]1O [Rutin]	1.2904	0.0532 10^6	−1.3			
COc1ccc(-c2cc(=O)c3c(OC)c(OC)c(OC)c(OC)c3o2)cc1 [Tangeretin]	1.0022	0.1498 10^6	3.0			
COc1c(O)cc2occ(-c3ccc(O)cc3)c(=O)c2c1O [Tectorigenin]	0.6283	0.0644 10^6	2.6			

Source: publication PMC9062502 (RSC Advances, 2019)
